Several values for one entry are separate records, joined by “and”; a condition that tells them apart may be missing. Equal entries are not always repeated. Square brackets hold non-standard residues; d marks the D form. Peptide text beside a SMILES is read from it.
Assays:
[1] = Ex-vivo stability in mouse plasma, MALDI-TOF MS; type: in vitro ADME, C57BL/6 mice; conditions: 37° C., 24 h
Protocol: The stability of D-AIP in mouse plasma, blood and liver S-9 fraction was investigated to ascertain the metabolic resistance towards proteases and enzymatic activities in these matrices. Whole mouse blood obtained from healthy C57BL/6 male and female mice (6 mice in total) were collected in lithium heparin containing tubes, pooled and stored at 4° C. prior to its use. A fraction of the pooled blood was immediately centrifuged at 1500×g for 10 min at 4° C. to obtain the plasma. The whole blood and plasma samples were spiked with PBS (as control) or AIP (L-AIP, D-AIP or sD-AIP respectively) to make a final concentration of 1 ug/mL and incubated at 37° C. Initial samples were withdrawn to represent t=0 prior to incubation and others were withdrawn 1, 3 and 24 h respectively. Fresh mouse liver also obtained from C57BL/6 male and female mice were pooled, homogenized in 0.15 M Potassium chloride (KCl) and centrifuged at 9000×g. […] The samples were then vigorously mixed for 30 s to facilitate extraction and centrifuged for 10 minutes at 13000 rpm, the supernatant was subjected to sample clean up by C18 ZipTip (EMD Millipore Corporation), the eluates were spotted with CHCA matrix on the ground steel MALDI-TOF target and analyzed with MALDI-TOF MS. […]

[2] = Plasma pharmacokinetics after single oral dose, LC-MS; type: in vivo, C57BL/6 mice; conditions: for CL/F (apparent total clearance from plasma) / λz (elimination rate constant): plasma
Protocol: (§1) An internal standard (IS) for the reliable quantification of D-AIP in biological matrices was prepared by dimethylation to produce an analog of D-AIP by using a protocol previously described (Boersema et al., 2009, Nat Protoc, 4:484-494). Standard solutions (1 mg/mL) each of D-AIP and IS were prepared in deionized water and 100% methanol respectively. 100 μL of IS working solution was prepared at 50 ng/ml added to 25 μL of the sample (plasma or brain homogenate). The sample was vortexed for approximately 5 s and let stand for 10 min, then centrifuged at 16,000 g for 10 min. The supernatant was transferred to a 13×100 polypropylene tube and evaporated to dryness at 50° C. under gentle stream of nitrogen. The dry extract was re-suspended with 40 μL of 0.1% (v/v) formic acid (Sigma Aldrich, St-Louis, MO, USA) in deionized water and transferred to an injection vial for analysis.
(§2) Thermo Scientific TSQ Quantiva Triple Quadrupole mass spectrometer (San Jose, CA, USA) was interfaced with the Thermo Scientific UltiMate 3000 XRS UHPLC system (San Jose, CA, USA) using a pneumatic assisted heated electrospray ion source. Data acquisition and analysis were performed using Xcalibur 4.0 (San Jose, CA, USA).
(§3) […]radient elution was used with a Thermo Scientific BioBasic-8 column (100×2 mm I.D. 5 μm) operating at 40° C. The initial mobile phase condition consisted of 0.1% formic acid in acetonitrile and 0.1% formic acid in deionized water at a ratio of 5:95, respectively and this ration was maintained for 1 min. A linear gradient was applied from 1 to 5 min up to a ratio of 50:50 and maintained for 1 min. At 6.1 min, the mobile phase composition was reverted to 5:95 and the column was allowed to equilibrate for 7.9 min for a total run time of 14 min. The D-AIP and IS eluted at 4.7 and 4.8 min respectively at a fixed flow rate of 0.2 mL/min. The eluent was diverted to waste for the first minute and last six minutes. Extracted sample (5 μL) was injected and the acquisition time was set to 14 min.
(§4) The mass spectrometer was interfaced with ultra-high-performance liquid chromatography (UHPLC) system using a pneumatic assisted heated electrospray ion source with detection in positive ion mode using […] (MRM). For proper optimization of the mass spectrometer, standard solutions of D-AIP and IS were infused. The obtained source parameters were 50 and 15 arbitrary units respectively while using nitrogen for the sheath and auxiliary gases. The HESI electrode was set to 3500 V, capillary and vaporizer temperature were both set to 300° C. respectively. The MS/MS parameters were optimized using the doubly charged species. Argon was used as collision gas at a pressure of 2.5 mTorr. The precursor-ion reaction for D-AIP were set to 471.4→[591.8+648.3] and for the IS the MRM transitions were set to 499.4→[425.8+468.8+476.8]
(§5) Standard solution of D-AIP (1 mg/mL) was diluted in various volumes of deionized water to obtain series of standard working solutions. Calibration standards were prepared by fortifying the mouse plasma and mouse brain homogenate with the standard working solutions at 10% (v/v) to enable analytical concentration range of 1.00 to 1000 ng/ml. The method is linear using a linear regression weighted 1/x analysis, a value of R^2≥0.9979 was obtained for plasma and R^2≥0.9991 for brain homogenate. Samples were injected in duplicate with the calculated in each case and concentrations were processed from the equation obtained from the respective calibration curves using Xcalibur 4.0 software.
(§6) Animal care and all animal experiments were undertaken with federal guidelines and approval of the Institutional Animal Ethical Committee of McGill University, Montreal, Canada (Protocol Application Number: 2017-7880) and adequate measures were taken to minimize pain or discomfort. […]

[3] = Brain homogenate concentrations after single oral dose, LC-MS; type: in vivo, C57BL/6 mice; conditions: for maximum brain concentration / peak brain concentration: brain homogenate; for maximum brain concentration / time of maximum brain concentration: female mice
Protocol: as §1, §2, §3, §4, §5, §6

[4] = female C57BL/6 mice, single oral dose 10 mg/kg
[5] = female C57BL/6 mice, single oral dose 30 mg/kg
[6] = female C57BL/6 mice, single oral dose 100 mg/kg
[7] = male C57BL/6 mice, single oral dose 10 mg/kg
[8] = male C57BL/6 mice, single oral dose 100 mg/kg

With `C[C@H](O)[C@@H](NC(=O)CNC(=O)[C@H](N)CCCNC(=N)N)C(=O)N[C@H](Cc1ccccc1)C(=O)N[C@H](CCC(=O)O)C(=O)NCC(=O)N[C@H](CCCCN)C(=O)N[C@H](Cc1ccccc1)C(=O)O` [D-AIP] (H-[dR]G[dT][dF][dE]G[dK][dF]-OH; N-terminus and C-terminus assumed) the “stability, MALDI-TOF MS signal (941 m/z)” value [1] was “relatively stable over 24 h”, the “dose relationship of AUC values” ([2]; 10, 30, 100 mg/kg oral, both sexes) was “linear in both sexes” and the plasma concentration decline ([2]; both sexes, all doses) was “reached baseline levels after 24 h”. For the same compound, the “CL/F (apparent total clearance from plasma)” value (shortened to “CL/F”) [2, 4] was 30.04 L/h, the “λz (elimination rate constant)” value [2, 4] was 0.06 h⁻¹ and the “CL/F” value [2, 5] was 42.02 L/h. The “λz (elimination rate constant)” value [2, 5] was 0.10 h⁻¹, the “CL/F” value [2, 6] was 51.54 L/h and the “λz (elimination rate constant)” value [2, 6] was 0.21 h⁻¹. The “CL/F” value [2, 7] was 35.81 L/h, the “λz (elimination rate constant)” value [2, 7] was 0.15 h⁻¹ and the “CL/F” value ([2]; male C57BL/6 mice, single oral dose 30 mg/kg) was 36.02 L/h. The “λz (elimination rate constant)” value ([2]; male C57BL/6 mice, single oral dose 30 mg/kg, 30 mg/kg) was 0.21 h^−1 and 0.21. h^−1, the “CL/F” value [2, 8] was 48.79 L/h and the “λz (elimination rate constant)” value [2, 8] was 0.24 h⁻¹. It also gave a tissue level at time at 4 h ([3]; C57BL/6, mouse, brain, male mice, highest dose (100 mg/kg oral), after 4 h, read-out: brain concentration during elimination) of 38.5 ng/g, a maximum brain concentration ([3]; single oral dose 10 mg/kg, at 4 h) of 28.91 ng/g and a maximum brain concentration ([3]; single oral dose 30 mg/kg, at 2 h) of 136.29 ng/g. The maximum brain concentration ([3]; single oral dose 100 mg/kg, at 2 h) was 707.95 ng/g, the peak brain concentration ([3]; male mice, single oral dose 10 mg/kg, at 4 h) was 133.15 ng/g and the peak brain concentration ([3]; male mice, single oral dose 30 mg/kg, at 2 h) was 262.00 ng/g. For the same compound, the peak brain concentration ([3]; male mice, single oral dose 100 mg/kg, at 0.5 h) was 509.24 ng/g, the “crossing of the BBB” value ([3]; female and male mice, single oral doses 10, 30, 100 mg/kg) was “crossed the BBB and reached the brain” and the “time of maximum brain concentration” value ([3]; single oral dose 10 mg/kg) was 4 h. For the same compound, the “time of maximum brain concentration” value ([3]; single oral dose 30 mg/kg) was 2 h, the “time of maximum brain concentration” value ([3]; single oral dose 100 mg/kg) was 2 h and the “time of peak brain concentration” value ([3]; male mice, single oral dose 10 mg/kg) was 4 h. The “time of peak brain concentration” value ([3]; male mice, single oral dose 30 mg/kg) was 2 h and the “time of peak brain concentration” value ([3]; male mice, single oral dose 100 mg/kg) was 0.5 h.

From patent US12613249B2 (THE ROYAL INSTITUTION FOR THE ADVANCEMENT OF LEARNING / …, priority 2019, dated 2026)
